{
  "source": "paper PMC8861095",
  "about": "“Neurotoxicological profile of the hallucinogenic compound 25I-NBOMe” (Scientific Reports, 2022)",
  "key": {"[1]": {"test_system": "p21 (CDC42/RAC)-activated kinase 1 (PAK1)", "parameters": "method as in PMID 32597268", "conditions": "cited from earlier work"}, "[2]": {"test_system": "BrdU+ cells and BrdU/NeuN+ neurons in the hippocampus", "conditions": "doses 0.1, 0.3, and 1 mg/kg; vs control rats; cited from earlier work"}, "[3]": {"test_system": "primary mice cardiomyocytes", "conditions": "in vitro; cited from earlier work"}, "apoptosis": {"test_system": "apoptosis", "experiment": "TUNEL assay for apoptotic signal in brain slices", "assay_type": "in vivo, rat", "conditions": "frontal cortex, anterior and posterior hippocampus; acute or chronic (× 7) 0.3 mg/kg; 72 h after treatment; qualitative", "description": "(§1) Animals received single or multiple (once per day for seven days) subcutaneous injections of 25I-NBOMe dissolved in 0.9% NaCl at a dose of 0.3 mg/kg/2 ml. The control group was treated with 0.9% NaCl solution in the same way. All procedures were performed 72 h after the last injection. The time point of 72 h was chosen due to the possible generation of neurotoxicity via oxidative stress caused by reactive oxygen species (ROS). Exceptionally, for initial 25I-NBOMe brain distribution studies, rats received the drug in the dose of 1 and 10 mg/kg and were sacrificed 15 min after the drug administration. The rat blood plasma and brain tissues were collected immediately after rats’ decapitation. LSD (0.05 mg/kg, ip) was given daily for 7 days in a volume of 1 ml/kg, while MDMA 5 mg/kg, ip was injected in a volume of 2 ml/kg every second day (overall 4 injections).\nAs described above, animals were perfused transcardially and brains were fixed overnight in 4% PFA, then gradually dehydrated and stored in 70% ethanol (EtOH). Paraffin-embedded brain tissue was sectioned on a microtome (Leica, RM45) for 7-µm-thick sections. […] The apoptotic signal was assessed using Click-iT™ Plus TUNEL Assay for in situ apoptosis detection with Alexa Fluor™ 488 picolyl azide dye. […] Stained slides were examined under a fluorescence microscope (Nikon Eclipse50i, Japan) equipped with a camera and NIS Elements software."}, "H9c2 cells": {"test_system": "H9c2 cells", "conditions": "in vitro; cited from earlier work"}, "[4]": {"experiment": "25I-NBOMe distribution in rat blood plasma and brain regions (LC–MS/MS, ESI ion trap)", "assay_type": "in vivo", "description": "as §1\nThe presence of 25I-NBOMe in the rat brain regions and blood serum was analyzed with electrospray ion trap mass spectrometry (Amazon SL from Bruker Daltonics, Bremen, Germany). At 72 h after the last injection with 25I-NBOMe or 15 min after injection of single low and high (1 and 10 mg/kg) dose, animals were sacrificed by decapitation. Brains were removed and the frontal cortex, striatum, nucleus accumbens, and hippocampus were dissected. The blood samples were also collected after 25I-NBOMe injections. Tissue samples were homogenized in an ice-cold 0.1 M HClO4, and were centrifuged at 10,000×g for 10 min at 4 °C. Blood was incubated for 30 min and then centrifuged for 15 min, 3000 rpm at 4 °C. The collected blood serum and tissue supernatants were frozen at − 80 °C until the time of mass spectrometry analysis. The value pH of samples was about 2. To purify the samples, solid phase extraction (SPE) columns MacroSpin Columns Silica C18 (The Nest Group, Inc., Southborough, USA) were used. Initially, columns were activated with 100% methanol (MeOH) solution by double centrifugation at 110×g for 1 min. Next, to remove MeOH, 2% acetonitrile (ACN) with 0.1% HCOOH was used. Subsequently, the columns were washed twice with the blood and tissue samples. To remove adenosine-5'-diphosphate (ADP) that has the same precursor ion as 25I-NBOMe the columns were washed twice with 2% ACN. Finally, to wash out 25I-NBOMe, the column was washed twice with 80% ACN with 0.1% HCOOH. Samples were left to dry in SpeedVac Vacuum Concentrator (Labconco, Kansas City, USA) overnight. The following day, samples were dissolved in 10% ACN with 0.1% HCOOH and injected to the LC–MS/MS system. The nanoLC-MS/MS analysis used to separate compounds was performed using the Ultimate 3000 nanocapillary chromatography system (Polygen, Gliwice, Poland). The separations were performed using a PepMap column (15 cm long, 75 μm ID, C18, 3 μm particle size, 100 Å pore size, Thermo-Scientific). The gradient was formed using 0.1% HCOOH in H2O (solvent A) and 0.1% HCOOH in ACN (solvent B), at a flow rate of 300 nl/min. The system was controlled by the Hystar software (Bruker Daltonics). A gradient was produced from 5 to 80% B in 100 min, then kept at 90% of phase B for 10 min. The mass spectrometry detection was performed in positive ion mode by electrospray ion trap mass spectrometry (Amazon SL from Bruker Daltonics, Bremen, Germany). The retention time of 25I-NBOMe was about 30.3 min. The acquired mass spectra were analyzed using the Bruker Data Analysis v. 4.0 software (Bruker Daltonics). The data presented in tables are calculated as intensity per 1 mg of wet tissue or 1 ml of blood serum, while mass spectra represent the real intensity of 25I-NBOMe-precursor ion from tissue samples with different mass."}, "QT interval": {"test_system": "QT interval", "conditions": "electrocardiography in rats; cited from earlier work"}},
  "data": [
    {"compound": "COc1cc(CCNCc2ccccc2OC)c(OC)cc1I", "note": "[25I-NBOMe, 4-Iodo-2,5-dimethoxy-N-(2-methoxybenzyl)phenethylamine]", "values": [
      {"measurement": "In vitro activity of PAK1", "setting": "[1]", "result": "reduced"},
      {"measurement": "Number of surviving BrdU+ cells and BrdU/NeuN+ neurons in the hippocampus", "setting": "[2]", "result": "significantly decreased"},
      {"measurement": "Cell viability", "setting": "[3]", "result": "decreased the viability"},
      {"measurement": "Apoptotic signal (TUNEL)", "setting": "apoptosis", "result": "did not indicate apoptotic signal"},
      {"measurement": "Cell viability", "setting": "H9c2 cells", "result": "decreased the viability"},
      {"measurement": "Accumulation in brain tissue after repeated administration", "setting": "[4]; 0.3 mg/kg × 7 vs single dose, 72 h", "result": "caused drug accumulation in the brain tissue"},
      {"measurement": "Intensity of the 25I-NBOMe precursor ion (~ 428 m/z)", "setting": "[4]; blood plasma, single 1 mg/kg, 15 min after injection, per 1 ml of blood serum, one sample preparation", "result": "9.24 × 10^4 a.u."},
      {"measurement": "Intensity of the 25I-NBOMe precursor ion (~ 428 m/z)", "setting": "[4]; blood plasma, single 10 mg/kg, 15 min after injection, per 1 ml of blood serum, one sample preparation", "result": "5.44 × 10^5 a.u."},
      {"measurement": "Crossing of the blood–brain barrier (BBB)", "setting": "[4]; detected in blood serum and several brain regions 15 min after injection", "result": "easily crosses the blood–brain barrier (BBB)"},
      {"measurement": "Intensity of the 25I-NBOMe precursor ion (~ 428 m/z)", "setting": "[4]; frontal cortex, chronic 0.3 mg/kg × 7 sc, 72 h after last injection, per 1 mg of wet tissue", "result": "2.93 × 10^4 a.u."},
      {"measurement": "Intensity of the 25I-NBOMe precursor ion (~ 428 m/z)", "setting": "[4]; frontal cortex, single 0.3 mg/kg sc, 72 h after injection, per 1 mg of wet tissue", "result": "2.25 × 10^3 a.u."},
      {"measurement": "Intensity of the 25I-NBOMe precursor ion (~ 428 m/z)", "setting": "[4]; frontal cortex, single 1 mg/kg, 15 min after injection, per 1 mg of wet tissue", "result": "2.94 × 10^4 a.u."},
      {"measurement": "Intensity of the 25I-NBOMe precursor ion (~ 428 m/z)", "setting": "[4]; frontal cortex, single 10 mg/kg, 15 min after injection, per 1 mg of wet tissue", "result": "4.36 × 10^5 a.u."},
      {"measurement": "Intensity of the 25I-NBOMe precursor ion (~ 428 m/z)", "setting": "[4]; hippocampus, chronic 0.3 mg/kg × 7 sc, 72 h after last injection, per 1 mg of wet tissue", "result": "1.72 × 10^4 a.u."},
      {"measurement": "Intensity of the 25I-NBOMe precursor ion (~ 428 m/z)", "setting": "[4]; hippocampus, single 0.3 mg/kg sc, 72 h after injection, per 1 mg of wet tissue", "result": "6.89 × 10^3 a.u."},
      {"measurement": "Intensity of the 25I-NBOMe precursor ion (~ 428 m/z)", "setting": "[4]; hippocampus, single 1 mg/kg, 15 min after injection, per 1 mg of wet tissue", "result": "1.60 × 10^4 a.u."},
      {"measurement": "Intensity of the 25I-NBOMe precursor ion (~ 428 m/z)", "setting": "[4]; hippocampus, single 10 mg/kg, 15 min after injection, per 1 mg of wet tissue", "result": "2.71 × 10^5 a.u."},
      {"measurement": "Intensity of the 25I-NBOMe precursor ion (~ 428 m/z)", "setting": "[4]; nucleus accumbens, chronic 0.3 mg/kg × 7 sc, 72 h after last injection, per 1 mg of wet tissue", "result": "9.00 × 10^3 a.u."},
      {"measurement": "Intensity of the 25I-NBOMe precursor ion (~ 428 m/z)", "setting": "[4]; nucleus accumbens, single 0.3 mg/kg sc, 72 h after injection, per 1 mg of wet tissue", "result": "3.85 × 10^3 a.u."},
      {"measurement": "Intensity of the 25I-NBOMe precursor ion (~ 428 m/z)", "setting": "[4]; nucleus accumbens, single 1 mg/kg, 15 min after injection, per 1 mg of wet tissue", "result": "2.32 × 10^7 a.u."},
      {"measurement": "Intensity of the 25I-NBOMe precursor ion (~ 428 m/z)", "setting": "[4]; nucleus accumbens, single 10 mg/kg, 15 min after injection, per 1 mg of wet tissue", "result": "7.15 × 10^7 a.u."},
      {"measurement": "Intensity of the 25I-NBOMe precursor ion (~ 428 m/z)", "setting": "[4]; striatum, chronic 0.3 mg/kg × 7 sc, 72 h after last injection, per 1 mg of wet tissue", "result": "2.12 × 10^3 a.u."},
      {"measurement": "Intensity of the 25I-NBOMe precursor ion (~ 428 m/z)", "setting": "[4]; striatum, single 0.3 mg/kg sc, 72 h after injection, per 1 mg of wet tissue", "result": "1.61 × 10^3 a.u."},
      {"measurement": "Intensity of the 25I-NBOMe precursor ion (~ 428 m/z)", "setting": "[4]; striatum, single 1 mg/kg, 15 min after injection, per 1 mg of wet tissue", "result": "5.97 × 10^4 a.u."},
      {"measurement": "Intensity of the 25I-NBOMe precursor ion (~ 428 m/z)", "setting": "[4]; striatum, single 10 mg/kg, 15 min after injection, per 1 mg of wet tissue", "result": "6.95 × 10^5 a.u."},
      {"measurement": "QT interval", "setting": "QT interval", "result": "prolonged"}
    ]}
  ]
}
